Measurements published in US8076294B2, “Collagen-related peptides and uses thereof” (Advanced Technologies and Regenerative Medicine, LLC., priority 2007, dated 2011).
“Also recorded” adds a separate entry of the source.

Columns and labels:
[1] = target: T1, integrin GPIIb/IIIa (Homo sapiens, UniProt P05106+P08514); assay: Inhibition by elarofiban of platelet aggregation induced by collagen or CRP trimer SEQ ID 25; assay type: cell-based
T1 construct: Washed platelets were incubated with various elarofiban doses; host or cells: washed human platelets from PRP of healthy volunteers
T1 sequence (P08514 32-887 limits assumed): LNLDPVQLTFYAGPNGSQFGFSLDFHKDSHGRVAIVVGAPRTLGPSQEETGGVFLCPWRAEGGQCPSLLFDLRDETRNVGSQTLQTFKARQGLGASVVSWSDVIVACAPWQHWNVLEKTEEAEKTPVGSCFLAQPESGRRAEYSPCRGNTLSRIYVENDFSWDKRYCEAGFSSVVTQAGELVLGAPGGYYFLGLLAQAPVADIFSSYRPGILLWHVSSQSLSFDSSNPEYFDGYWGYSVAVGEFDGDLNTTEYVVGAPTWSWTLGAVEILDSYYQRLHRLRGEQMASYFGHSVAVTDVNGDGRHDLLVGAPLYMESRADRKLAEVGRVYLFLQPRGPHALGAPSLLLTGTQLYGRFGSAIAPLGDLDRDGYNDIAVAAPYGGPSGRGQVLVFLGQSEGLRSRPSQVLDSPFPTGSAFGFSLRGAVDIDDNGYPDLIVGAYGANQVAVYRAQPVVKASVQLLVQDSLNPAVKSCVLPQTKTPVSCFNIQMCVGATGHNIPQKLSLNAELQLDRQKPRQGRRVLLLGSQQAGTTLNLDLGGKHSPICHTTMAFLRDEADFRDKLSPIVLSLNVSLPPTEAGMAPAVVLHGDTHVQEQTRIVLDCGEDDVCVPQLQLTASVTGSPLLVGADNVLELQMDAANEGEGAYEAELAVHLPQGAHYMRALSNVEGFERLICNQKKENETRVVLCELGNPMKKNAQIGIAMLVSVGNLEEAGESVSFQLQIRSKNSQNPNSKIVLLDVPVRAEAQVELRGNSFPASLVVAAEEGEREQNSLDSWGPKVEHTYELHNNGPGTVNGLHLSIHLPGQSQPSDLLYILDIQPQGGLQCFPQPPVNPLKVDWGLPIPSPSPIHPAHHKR
T1 sequence (P08514 891-1039 partner limits assumed): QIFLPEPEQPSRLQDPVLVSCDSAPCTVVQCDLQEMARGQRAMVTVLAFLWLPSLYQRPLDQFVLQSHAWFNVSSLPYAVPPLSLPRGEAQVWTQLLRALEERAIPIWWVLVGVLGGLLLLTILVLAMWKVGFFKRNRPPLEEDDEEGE
T1 sequence (P05106 27-788): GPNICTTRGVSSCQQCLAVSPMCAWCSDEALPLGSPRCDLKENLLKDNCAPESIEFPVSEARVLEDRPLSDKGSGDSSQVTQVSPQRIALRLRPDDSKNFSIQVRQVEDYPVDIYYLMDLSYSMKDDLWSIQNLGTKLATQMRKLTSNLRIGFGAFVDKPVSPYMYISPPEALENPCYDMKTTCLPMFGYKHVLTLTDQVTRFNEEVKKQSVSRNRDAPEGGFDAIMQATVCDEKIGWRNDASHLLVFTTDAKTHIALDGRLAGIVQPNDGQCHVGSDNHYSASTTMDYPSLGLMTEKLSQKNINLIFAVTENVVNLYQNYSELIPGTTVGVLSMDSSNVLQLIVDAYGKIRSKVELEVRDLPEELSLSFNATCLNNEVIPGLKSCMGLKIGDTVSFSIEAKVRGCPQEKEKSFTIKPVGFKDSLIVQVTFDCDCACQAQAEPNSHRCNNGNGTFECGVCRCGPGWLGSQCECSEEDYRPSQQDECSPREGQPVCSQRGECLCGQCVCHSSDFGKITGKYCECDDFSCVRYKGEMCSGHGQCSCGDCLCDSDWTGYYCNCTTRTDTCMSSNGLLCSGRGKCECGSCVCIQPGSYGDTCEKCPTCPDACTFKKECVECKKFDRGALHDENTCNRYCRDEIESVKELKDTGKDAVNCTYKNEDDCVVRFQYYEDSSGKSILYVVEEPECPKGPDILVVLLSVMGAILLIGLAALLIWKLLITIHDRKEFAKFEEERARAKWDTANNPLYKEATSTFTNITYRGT

[2] = test system: human platelets; assay: Human platelet aggregation assay (washed platelets, optical density 650 nm); assay type: cell-based; details: for EC50 ± SEM, platelet aggregation: Table 3
Description: Human platelet-rich plasma (PRP) concentrate from healthy volunteers was purchased from Biological Specialties, Inc. (Colmar, Pa.). […] The PRP was centrifuged at 730 g for 15 min. The resulting platelet pellet was washed twice in CGS buffer (13 mM sodium citrate, 30 mM glucose, 120 mM NaCl, pH 6.5) containing 1 U/mL apyrase (grade V, Sigma-Aldrich) and resuspended in Tyrode's buffer (140 mM NaCl, 2.7 mM KCl, 12 mM NaHCO3, 0.76 mM Na2HPO4, 5.5 mM dextrose, 5.0 mM Hepes, 0.2% BSA, pH 7.4). The “washed” platelets were diluted to 3×10^8 platelets/mL and kept >45 min at 37° C. before use.
For the assay, 105 μL of washed platelets, 2 mM CaCl2 and […] of fibrinogen were added to a 96-well microtiter plate. Platelet aggregation was initiated by the addition of serial concentrations of native collagen fibrils (equine type I; 92% identity with human collagen sequence; Chrono-log Corp., Havertown, Pa.) or test peptides. Buffer was added to one set of control wells. The assay plate was stirred constantly and intermittently placed in a microplate reader (Softmax, Molecular Devices, Menlo Park, Calif.) to read optical density (650 nm) at 0 and 5 min after the addition of the compound solutions. Aggregation was calculated as the decrease in optical density between the time-0 and 5-min measurements and expressed as percent of aggregation.
Peptides were dissolved in PBS (pH 7) or water (final pH 5) to a concentration of 2 mg/mL. Some samples were heated in a water bath (70° C.) for 10 min, filtered through a 0.45-μm filter and incubated for 24 h or 7 days at 4° C.

In the case of `O=C(O)C[C@H](NC(=O)[C@@H]1CCCN(C(=O)CCC2CCNCC2)C1)c1cccnc1` [elarofiban], the “Inhibition of platelet aggregation induced by the CRP trimer having SEQ ID 25” value ([1]; washed platelets incubated with 10, 100 and 1000 nM for 5 min before SEQ ID 25) is reported as “dose-dependent inhibition” and the “Inhibition of platelet aggregation induced by collagen” value ([1]; washed platelets incubated with 10, 100 and 1000 nM for 5 min before collagen) is reported as “dose-dependent inhibition”.
For (Pro-Hyp-Gly)10 [SEQ ID 34], the “Stimulation of platelet aggregation (in words)” value ([2]; Example 6, FIG. 1) was “not effective” and the “EC50 ± SEM, platelet aggregation” value ([2]; peptide in PBS, H + F, pH 7, incubation 24 h) was “failed to aggregate platelets; also recorded: Not Active”.
With Collagen the “EC50 values (±SEM), platelet aggregation” value ([2]; Example 6, FIG. 1, Table 4) was 0.56 ± 0.09 µg/mL and the “EC50 ± SEM, platelet aggregation” value ([2]; native collagen fibrils (equine type I), no preparation conditions given) was 0.25 µg/mL.
